{"source": "ChEMBL document CHEMBL1955788", "about": "“C-C bond formation at C-2 of a quinoline ring: synthesis of 2-(1H-indol-3-yl)quinoline-3-carbonitrile derivatives as a new class of PDE4 inhibitors” (Bioorg Med Chem, 2012)", "key": {"[1]": {"target": "T1, 3',5'-cyclic-AMP phosphodiesterase 4B (Homo sapiens, UniProt Q07343)", "T1 sequence (Q07343 whole entry)": "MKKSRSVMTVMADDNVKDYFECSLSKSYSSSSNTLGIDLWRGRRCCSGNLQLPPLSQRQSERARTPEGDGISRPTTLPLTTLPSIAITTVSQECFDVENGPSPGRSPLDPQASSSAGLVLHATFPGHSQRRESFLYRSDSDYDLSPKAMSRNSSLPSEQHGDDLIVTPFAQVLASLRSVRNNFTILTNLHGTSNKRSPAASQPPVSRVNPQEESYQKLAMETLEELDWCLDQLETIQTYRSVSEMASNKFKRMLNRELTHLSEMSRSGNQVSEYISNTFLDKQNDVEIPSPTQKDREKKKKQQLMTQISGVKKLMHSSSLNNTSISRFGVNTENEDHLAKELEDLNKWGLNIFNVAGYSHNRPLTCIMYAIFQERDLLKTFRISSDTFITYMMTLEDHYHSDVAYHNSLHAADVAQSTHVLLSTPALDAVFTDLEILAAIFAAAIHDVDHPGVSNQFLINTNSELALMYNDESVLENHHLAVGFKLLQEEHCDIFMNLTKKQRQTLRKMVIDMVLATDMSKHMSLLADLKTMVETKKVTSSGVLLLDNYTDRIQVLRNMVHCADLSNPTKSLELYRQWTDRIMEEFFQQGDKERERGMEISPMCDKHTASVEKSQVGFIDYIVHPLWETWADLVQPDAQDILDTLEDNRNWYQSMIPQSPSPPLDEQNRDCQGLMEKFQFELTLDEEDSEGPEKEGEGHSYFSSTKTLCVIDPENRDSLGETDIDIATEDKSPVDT", "experiment": "Inhibition of PDE4B expressed in HEK293 cells assessed as fold reduction in forskolin-stimulated cAMP production at 10 uM pretreated for 30 mins measured 4 hrs after forskolin challenge by luciferase reporter gene assay", "type": "functional, cell-based"}, "[2]": {"target": "T1, 3',5'-cyclic-AMP phosphodiesterase 4B", "experiment": "Inhibition of PDE4B expressed in HEK293 cells assessed as fold reduction in forskolin-stimulated cAMP production pretreated for 30 mins measured 4 hrs after forskolin challenge by luciferase reporter gene assay", "type": "functional, cell-based"}}, "note": "Calls of active or inactive are those of the source. The rule behind the calls is not given here.", "data": [{"smiles": "N#Cc1cc2ccccc2nc1-c1c[nH]c2ccccc12", "values": [{"measurement": "PDE4B inhibition activity (fold reduction in cAMP)", "setting": "[1]", "result": "Active"}]}, {"smiles": "Cc1ccc2nc(-c3c[nH]c4ccccc34)c(C#N)cc2c1", "values": [{"measurement": "PDE4B inhibition activity (fold reduction in cAMP)", "setting": "[1]", "result": "Active"}]}, {"smiles": "COc1ccc2c(-c3nc4ccc(C)cc4cc3C#N)c[nH]c2c1", "values": [{"measurement": "PDE4B inhibition activity (fold reduction in cAMP)", "setting": "[1]", "result": "Active"}]}, {"smiles": "COc1ccc2[nH]cc(-c3nc4ccc(C)cc4cc3C#N)c2c1", "values": [{"measurement": "PDE4B inhibition activity (fold reduction in cAMP)", "setting": "[1]", "result": "Active"}]}, {"smiles": "N#Cc1cc2ccccc2nc1-c1c[nH]c2ccc(Cl)cc12", "values": [{"measurement": "PDE4B inhibition activity (fold reduction in cAMP)", "setting": "[1]", "result": "Active"}]}, {"smiles": "N#Cc1cc2ccccc2nc1-c1c[nH]c2ccc(Br)cc12", "values": [{"measurement": "PDE4B inhibition activity (fold reduction in cAMP)", "setting": "[1]", "result": "Active"}]}, {"smiles": "COc1ccc2c(-c3nc4ccccc4cc3C#N)c[nH]c2c1", "values": [{"measurement": "EC50", "setting": "[2]", "result": 890, "unit": "nM"}, {"measurement": "inhibition", "setting": "[2]", "result": "Dose-dependent effect"}, {"measurement": "PDE4B inhibition activity (fold reduction in cAMP)", "setting": "[1]", "result": "Active"}]}, {"smiles": "Cn1cc(-c2nc3ccccc3cc2C#N)c2ccccc21", "values": [{"measurement": "PDE4B inhibition activity (fold reduction in cAMP)", "setting": "[1]", "result": "Active"}]}, {"smiles": "COc1ccc2[nH]cc(-c3nc4ccccc4cc3C#N)c2c1", "values": [{"measurement": "PDE4B inhibition activity (fold reduction in cAMP)", "setting": "[1]", "result": "Active"}]}, {"smiles": "Cc1ccc2nc(-c3c[nH]c4ccc(Br)cc34)c(C#N)cc2c1", "values": [{"measurement": "PDE4B inhibition activity (fold reduction in cAMP)", "setting": "[1]", "result": "Active"}]}, {"smiles": "N#Cc1cc2ccccc2nc1-c1c[nH]c2cc(F)c(F)cc12", "values": [{"measurement": "PDE4B inhibition activity (fold reduction in cAMP)", "setting": "[1]", "result": "Active"}]}, {"smiles": "Cc1ccc2nc(-c3c[nH]c4ccc(Cl)cc34)c(C#N)cc2c1", "values": [{"measurement": "PDE4B inhibition activity (fold reduction in cAMP)", "setting": "[1]", "result": "Active"}]}]}
